From patent publication US20060025474A1, “Bisphenyl compounds useful as vitamin D3 receptor agonists” (priority 2004, published 2006)

System: ECAC2 mRNA in Caco-2 cells
Format: cell-based
Procedure: The mRNA Expression Assay of ECAC2 in Caco-2 Cells
The dispersed cells were plated in 48-well plate at a concentration of 6.3×10^4 cells/well and incubated for 4 days at 37° C. The culture medium (Dulbecco's Modified Eagle Medium (D-MEM) without NaHCO3 with 44 mM NaHCO3, 1 mM non-essential amino acids, and 2 mM L-glutamine, 90%; fetal bovine serum, 10%) was then replaced with the same medium containing various concentrations of LG190178 (the compound disclosed in WO00/10958 and the corresponding U.S. Pat. No. 6,218,430 B1) or the compounds of the present invention, and cells were cultured for 1 day at 37° C. The culture medium containing the compounds was changed twice per day.
Total RNA Isolation from Caco-2 Cell
Total RNA was isolated from Caco-2 cell following ABI PRISM™ 6100 Nucleic Acid PrepStation protocol from Applied Biosystems.
Real Time RT-PCR Assay of ECAC2
ECAC2 mRNA expression was determined using TaqMan One-step RT-PCR Master Mix Reagents Kit and PRISM7000 systems from Applied Biosystems.
Primer information and cycle conditions are 1)ECAC2, forward 5′-[…]-3′, reverse 5′-GTCCTCTGTCTGGMGATGA-3′, Taqman probe 5′-[…]-3′, 55 cycles, annealing temperature (Ta)=60° C.; 2)GAPDH, forward 5′-GMGGTGMGGTCGGAGTC-3′, reverse 5′-GMGATGGTGATGGGATTTC-3′, Taqman probe 5′-[…]-3′, 55 cycles, Ta=60° C. ECAC2 mRNA values were normalized for the expression of GAPDH mRNA within each sample.
Comparison of ECAC2 mRNA Value
The EC50 values of ECAC2 mRNA values were analyzed by Emax models. The ECAC2 mRNA ratio was calculated as the ratio of the EC50 value of the compounds to that of LG190178. ECAC2 is a channel-like transporter mediating intestinal calcium absorption. It is described in J Biol Chem. Aug. 6, 1999; 274(32):22739-46 for example.

First: CCc1cc(C(CC)(CC)c2ccc(C(=O)N[C@H](C)C(=O)O)s2)ccc1OCC(C)(O)C(C)(C)C (single isomer, unassigned) [Compound B, reference compound]
Second: CCC(CC)(c1ccc(CCC(O)C(C)(C)C)c(C)c1)c1ccc(OC[C@@H](O)CCCC(=O)O)c(C)c1 (stereo partly drawn) [Example 186, 6-(4-{1-Ethyl-1-[4-(3-hydroxy-4,4-dimethyl-pentyl)-3-methyl-phenyl]-propyl}-2-methyl-phenoxy)-5(S)-hydroxy-hexanoic acid]
The “ECaC-2 mRNA induction activity in Caco-2 cells” value (from here on “ECaC-2 mRNA induction activity”) of the first is lower: 15% for the first, 57% for the second.

Going from `CCC(CC)(c1ccc(/C=C/C(O)(C(F)(F)F)C(F)(F)F)c(C)c1)c1ccc(OC[C@H](O)CCCC(=O)O)c(C)c1` [Example 62, (R)-6-(4-{1-Ethyl-1-[3-methyl-4-((E)-4,4,4-trifluoro-3-hydroxy-3-trifluoromethyl-but-1-enyl)-phenyl]-propyl}-2-methyl-phenoxy)-5-hydroxy-hexanoic acid] to `CCC(CC)(c1ccc(/C=C/C(O)(C(F)(F)F)C(F)(F)F)c(C)c1)c1ccc(OC[C@H](O)CCC(=O)O)c(C)c1` [Example 49, 5-(4-{1-ethyl-1-[3-methyl4-((E)4,4,4-trifluoro-3-hydroxy-3-trifluoromethyl-but-1-enyl)-phenyl]-propyl}-2-methyl-phenoxy)4(R)-hydroxy-pentanoic acid], the “ECaC-2 mRNA induction activity” value rises from 410% to 987%.

Compared with `CCC(CC)(c1ccc(/C=C/C(O)(C(F)(F)F)C(F)(F)F)c(C)c1)c1ccc(CCC(=O)O)c(C)c1` [Example 107, 3-(4-{1-ethyl-1-[3-methyl-4-((E)-4,4,4-trifluoro-3-hydroxy-3-trifluoromethyl-but-1-enyl)-phenyl]-propyl}-2-methyl-phenyl)-propionic acid], `CCC(CC)(c1ccc(/C=C/C2(O)CCCCC2)c(C)c1)c1ccc(OC[C@@H](O)CCC(=O)O)c(C)c1` [Example 37, (S)-5-[4-(1-ethyl-1-{4-[(E)-2-(1-hydroxy-cyclohexyl)-vinyl]-3-methyl-phenyl}-propyl)-2-methyl-phenoxy]-4-hydroxy-pentanoic acid] is lower in “ECaC-2 mRNA induction activity” value: 823% for the first, 639% for the second.

Going from `CCC(O)(/C=C/c1ccc(C(CC)(CC)c2ccc(OCCCCCN)c(C)c2)cc1C)CC` [Example 119, (E)-1-(4-{1-[4-(5-Amino-pentyloxy)-3-methyl-phenyl]-1-ethyl-propyl}-2-methyl-phenyl)-3-ethyl-pent-1-en-3-ol] to `CCC(CC)(c1ccc(/C=C/C2(O)CCCC2)c(C)c1)c1ccc(OCCCCCN)c(C)c1` [Example 121, 1-[(E)-2-(4-{1-[4-(5-Amino-pentyloxy)-3-methyl-phenyl]-1-ethyl-propyl}-2-methyl-phenyl)-vinyl]-cyclopentanol], the “ECaC-2 mRNA induction activity” value rises from 12% to 75%.

Compared with `CCC(O)(/C=C/c1ccc(C(CC)(CC)c2ccc(OC[C@H]3CCC(=O)O3)c(C)c2)cc1C)CC` [Example 44, (R)-5-(4-{1-ethyl-1-[4-((E)-3-ethyl-3-hydroxy-pent-1-enyl)-3-methyl-phenyl]-propyl}-2-methyl-phenoxymethyl)-dihydro-furan-2-one], `CCC(CC)(c1ccc(CCC(O)C(C)(C)C)c(C)c1)c1ccc(OCCCCCN)c(C)c1` (centres unmarked) [Example 102, 1-(4-{1-[4-(5-amino-pentyloxy)-3-methyl-phenyl]-1-ethyl-propyl}-2-methyl-phenyl)-4,4-dimethyl-pentan-3-ol] is higher in “ECaC-2 mRNA induction activity” value: 96% for the first, 166% for the second.

For `CCC(CC)(c1ccc(/C=C/C(O)(C(F)(F)F)C(F)(F)F)c(C)c1)c1ccc(OCCCCCN)c(C)c1` [Example 125, (E)4-(4-{1-[4-(5-Amino-pentyloxy)-3-methyl-phenyl]-1-ethyl-propyl}-2-methyl-phenyl)-1,1,1-trifluoro-2-trifluoromethyl-but-3-en-2-ol], the “ECaC-2 mRNA induction activity” value was less than 10%.
